For 37 molecules, IC50 results are on record in patent publication US6737425B1, “N,N-substituted cyclic amine derivatives” (Eisai Co., Ltd., priority 1998, dated 2004).

The experiment relates to voltage-dependent calcium channels (cerebral cortex synaptosome). Kind of experiment: Measurement of voltage-dependent calcium channel activity by the use of a fluorescent pigment (fura 2). It is filed as cell-based. The settings on record: rat cerebral cortex synaptosome, fura 2, KCl stimulation, compound incubated 10 minutes. The method, then: Measurement of Voltage-dependent Calcium Channel Activity by the use of a Fluorescent Pigment (fura 2)
Cerebral cortexes were removed from cut rat brains and disrupted roughly with scissors. These were introduced into a homogenizer, homogenized in 0.3 M saccharose and centrifuged at 4° C. (1,500 g×10 min). The resulting supernatant was further centrifuged at 4° C. (10,000 g×20 min). The resulting precipitates were suspended in 0.3 M saccharose. The suspension was layered on 0.8 M saccharose and centrifuged (10,000 g×30 min.).
4 μM fura 2/AM (Dojin Ltd.) was suspended in solution A to prepare a loading solution. To the synaptosome solution prepared in the method described above was added an equal volume of the loading solution, and the mixture was incubated for 40 minutes at room temperature.
As comparative and control compound, verapamil hydrochloride was used.
Usually IC50 stands for the concentration needed to halve the response being measured. With `CC(C)C(C#N)(CCCN1CCN(CCC(O)c2ccc(F)cc2)CC1)c1ccccc1` (stereo not shown) [Example 60, 1-[(4-Cyano-5-methyl-4-phenyl)hexyl]-4-[-hydroxy-3-(4-flurophenyl)propyl]piperazine], the half-inhibitory concentration (IC50) amounted to 10 µM.

In the case of `CC(C)C(C#N)(CCCN1CCN(C(=O)COc2ccc(F)cc2)CC1)c1ccccc1` (stereo not shown) [Example 61, 1-[(4-Cyano-5-methyl-4-phenyl)hexyl]-4-[2-(4-fluorophenoxy)acetyl]piperazine], the 50% inhibitory concentration (IC50) was determined as 11 µM.

In the case of `CC(C)C(C#N)(CCCN1CCN(CC(O)COc2ccc(F)cc2)CC1)c1ccccc1` (stereo not shown) [Example 62, 1-[(4-Cyano-5-methyl-4-phenyl)hexyl]-4-[2-hydroxy-3-(4-fluorophenoxy)propyl]piperazine], the IC50 is 8.8 µM.

As for `CC(C)C(C#N)(CCCN1CCN(CCC(=O)Nc2ccc(F)cc2)CC1)c1ccccc1` (stereo not shown) [Example 63, 1-[(4-Cyano-5-methyl-4-phenyl)hexyl]-4-[2-(4-fluorophenylaminocarbonyl)ethyl]piperazine], the 50% inhibitory concentration (IC50) worked out at 7.4 µM.

Consider `CC(C)C(C#N)(CCCN1CCN(CC(=O)Nc2ccc(F)cc2)CC1)c1ccccc1` (stereo not shown) [Example 65, 1-[(4-Cyano-5-methyl-4-phenyl)hexyl]-4-[N-(4-fluorophenyl)carbamoylmethyl]piperazine], for which the IC50 was more than 16 µM.

Consider `CC(C)C(C#N)(CCCN1CCN(CCNS(=O)(=O)c2ccc(F)cc2)CC1)c1ccccc1` (stereo not shown) [Example 66, 1-[(4-Cyano-5-methyl-4-phenyl)hexyl]-4-[2-(4-fluorobenzenesulfonylamino)ethyl]piperazine], for which the IC50 turned out to be 8.2 µM.

Turning to `CC(C)C(C#N)(CCCN1CCN(CCS(=O)(=O)Nc2ccc(F)cc2)CC1)c1ccccc1` (stereo not shown) [Example 67, 1-[(4-Cyano-5-methyl-4-phenyl)hexyl]-4-{2-[N-(4-fluorophenyl)sulfamoyl]ethyl}piperazine], the 50% inhibitory concentration (IC50) was found to be 10 µM.

Regarding `CC(C)C(C#N)(CCCN1CCN(CCS(=O)(=O)N(C)c2ccc(F)cc2)CC1)c1ccccc1` (stereo not shown) [Example 68, 1-[(4-Cyano-5-methyl-4-phenyl)hexyl]-4-{2-[N-(4-fluorophenyl)-N-methylsulfamoyl]ethyl}piperazine], the IC50 was 8.7 µM.

Turning to `CC(C)C(C#N)(CCCN1CCN(CCN(C)S(=O)(=O)c2ccc(F)cc2)CC1)c1ccccc1` (stereo not shown) [Example 69, 1-[(4-cyano-5-methyl-4-phenyl)hexyl]-4-[2-(N-methyl-4-fluorobenzenesulfonylamino)ethyl]piperazine], the IC50 was found to be 9.2 µM.

For `CC(C)C(C#N)(CCCN1CCN(CCOC(=O)Sc2ccc(F)cc2)CC1)c1ccccc1` (stereo not shown) [Example 70, 1-[(4-Cyano-5-methyl-4-phenyl)hexyl]-4-{2-[(4-fluorophenylthio)carbonyloxyl]ethyl}piperazine], the IC50 amounted to 3.8 µM.

For the molecule `CC(C)C(C#N)(CCCN1CCN(CCOc2ccccn2)CC1)c1ccccc1` (stereo not shown) [Example 71, 1-[(4-Cyano-5-methyl-4-phenyl)hexyl]-4-[2-(2-pyridyloxy)ethyl]piperazine], the concentration for half-maximal inhibition (IC50) is more than 16 µM.

As for `CC(C)(O)C(C#N)(CCCN1CCN(CCOc2ccc(F)cc2)CC1)c1ccccc1` (stereo not shown) [Example 81, 1-[(4-Cyano-5-hydroxy-5-methyl-4-phenyl)hexyl]-4-[2-(4-fluorophenoxyl)ethyl]piperazine], the 50% inhibitory concentration (IC50) is more than 16 µM.

With `C=C(C)C(C#N)(CCCN1CCN(CCOc2ccc(F)cc2)CC1)c1ccccc1` (stereo not shown) [Example 82, 1-[5-(4-Cyano-5-methyl-4-phenyl)hexenyl]-4-[2-(4-fluorophenoxyl)ethyl]piperazine], the half-maximal inhibitory concentration (IC50) came out at 5 µM.

As for `CC(C)C(C#N)(CCCN1CCN(CCOc2ccc(F)cc2)CC1)c1ccc(O)cc1` (stereo not shown) [Example 83, 1-[4-Cyano-5-methyl-4-(4-hydroxyphenyl)hexyl]-4-[2-(4-fluorophenoxy)ethyl]piperazine], the IC50 was 13 µM.

Turning to `CC(C)C(C#N)(CCCN1CCN(CCOc2ccc(F)cc2O)CC1)c1ccccc1` (stereo not shown) [Example 84, 1-[(4-Cyano-5-methyl-4-phenyl)hexyl]-4-[2-(2-hydroxy-4-fluorophenoxy)ethyl]piperazine], the IC50 was 6 µM.

In the case of `N#CC(F)(CCCN1CCN(CCOc2ccc(F)cc2)CC1)c1ccccc1` (stereo not shown) [Example 85, 1-[(4-Cyano-4-fluoro-4-phenyl)butyl]-4-[2-(4-fluorophenoxy)ethyl]piperazine], the IC50 was 16 µM.

Regarding `CCOC(=O)COc1cc(F)ccc1OCCN1CCN(CCCC(C#N)(c2ccccc2)C(C)C)CC1` (stereo not shown) [Example 86, 1-[(4-Cyano-5-methyl-4-phenyl)hexyl]-4-[2 (2-ethoxycarbonylmethoxy-4-fluorophenoxy)ethyl]piperazine], the half-maximal inhibitory concentration (IC50) turned out to be 4.3 µM.

As to `CC(C)C(C#N)(CCCN1CCN(CCOc2ccc(F)cc2OCCO)CC1)c1ccccc1` (stereo not shown) [Example 87, 1-[(4-Cyano-5-methyl-4-phenyl)hexyl]-4-[2-(2-hydroxyethoxy-4-fluorophenoxy)ethyl]piperazine], the 50% inhibitory concentration (IC50) is more than 16 µM.

In the case of `COc1cc(F)ccc1OCCN1CCN(CCCC(C#N)(c2ccccc2)C(C)C)CC1` (stereo not shown) [Example 88, 1-[(4-Cyano-5-methyl-4-phenyl)hexyl]-4-[2-(2-methoxy-4-fluorophenoxy)ethyl]piperazine], the IC50 turned out to be 4.9 µM.

For `CC(C)N(CCN1CCN(CCCC(C#N)(c2ccccc2)C(C)C)CC1)c1ccccc1` (stereo not shown) [Example 89, 1-[(4-Cyano-5-methyl-4-phenyl)hexyl]-4-[2-(N-isopropylanilino)ethyl]piperazine], the half-inhibitory concentration (IC50) came out at 2.7 µM.

Turning to `CC(C)C(C#N)(CCCN1CCN(CCN(c2ccccc2)C2CCCCC2)CC1)c1ccccc1` (stereo not shown) [Example 90, 1-[(4-Cyano-5-methyl-4-phenyl)hexyl]-4-[2-(N-cyclohexylanilino)ethyl]piperazine], the IC50 was determined as 2.6 µM.

Take `CC(C)c1ccc(N(C)CCN2CCN(CCCC(C#N)(c3ccccc3)C(C)C)CC2)cc1` (stereo not shown) [Example 91, 1-[(4-Cyano-5-methyl-4-phenyl)hexyl]-4-{2-[N-methyl(4-isopropylanilino)ethyl]}piperazine]: the IC50 was determined as 2.1 µM.

Consider `CC(C)c1cccc(N(C)CCN2CCN(CCCC(C#N)(c3ccccc3)C(C)C)CC2)c1` (stereo not shown) [Example 92, 1-[(4-Cyano-5-methyl-4-phenyl)hexyl]-4-{2-[N-methyl(3-Isopropylanilino)ethyl]}piperazine], for which the IC50 turned out to be 1.8 µM.

Regarding `CC(C)c1ccccc1N(C)CCN1CCN(CCCC(C#N)(c2ccccc2)C(C)C)CC1` (stereo not shown) [Example 93, 1-[(4-Cyano-5-methyl-4-phenyl)hexyl]-4-{2-[N-methyl(2-Isopropylanilino)ethyl]}piperazine], the concentration for half-maximal inhibition (IC50) is 2.4 µM.

As for `CC(C)C(C#N)(CCCN1CCN(CCOc2ccc3c(c2)OCO3)CC1)c1ccccc1` (stereo not shown) [Example 94, 1-[(4-Cyano-5-methyl-4-phenyl)hexyl]-4-{2-[3,4-(methylenedioxy)phenoxy]ethyl}piperazine], the IC50 was found to be 6.1 µM.

For the molecule `CC(C)C(C#N)(CCCN1CCN(CCOc2ccc3ncccc3c2)CC1)c1ccccc1` (stereo not shown) [Example 95, 1-[(4-Cyano-5-methyl-4-phenyl)hexyl]-4-[2-(6-quinolyloxy)ethyl]piperazine], the IC50 came to 11 µM.

With `CC(C)C(C#N)(CCCN1CCN(CCOc2cccc3cnccc23)CC1)c1ccccc1` (stereo not shown) [Example 96, 1-[(4-Cyano-5-methyl-4-phenyl)hexyl]-4-[2-(5-isoquinolyloxy)ethyl]piperazine], the concentration for half-maximal inhibition (IC50) is 5.4 µM.

Turning to `CC(CCC(C#N)(c1ccccc1)C(C)C)N1CCN(CCOc2ccc(F)cc2)CC1` (stereo not shown) [Example 97, 1-[{2-(5-Cyano-6-methyl-5-phenyl)heptyl}]-4-[2-(4-fluorophenoxy)ethyl]piperazine], the IC50 is 3.9 µM.

For the molecule `CCCC(CCC(C#N)(c1ccccc1)C(C)C)N1CCN(CCOc2ccc(F)cc2)CC1` (stereo not shown) [Example 98, 1-{[4-(7-Cyano-8-methyl-7-phenyl)nonyl]}-4-[2-(4-fluorophenoxy)ethyl]piperazine], the concentration for half-maximal inhibition (IC50) is more than 16 µM.

For `CC(C)C(C#N)(CCCN1CCN(CCOc2ccncc2)CC1)c1ccccc1` (stereo not shown) [Example 99, 1-[(4-Cyano-5-methyl-4-phenyl)hexyl]-4-[2-(4-pyridyloxy)ethyl]piperazine], the IC50 was more than 16 µM.

In the case of `CC(C)C(C#N)(CCCN1CCN(CCOc2cccnc2)CC1)c1ccccc1` (stereo not shown) [Example 100, 1-[(4-Cyano-5-methyl-4-phenyl)hexyl]-4-[2-(3-pyridyloxy)ethyl]piperazine], the 50% inhibitory concentration (IC50) is more than 16 µM.

`CC(C)C(C#N)(CCCN1CCN(CCOc2cccc3ncccc23)CC1)c1ccccc1` (stereo not shown) [Example 101, 1-[(4-Cyano-5-methyl-4-phenyl)hexyl]-4-[2-(5-quinolyloxy)ethyl]piperazine]: the IC50 came out at 9.2 µM.

Turning to `CC(C)C(C#N)(CCCN1CCN(CCOc2ccc(C(F)(F)F)cc2)CC1)c1ccccc1` (stereo not shown) [Example 102, 1-[(4-Cyano-5-methyl-4-phenyl)hexyl]-4-[2-(4-trifluoromethylphenoxy)ethyl]piperazine], the IC50 was determined as 2.7 µM.

Regarding `CC(C)C(C#N)(CCCN1CCN(CCOc2cccc3ccccc23)CC1)c1ccccc1` (stereo not shown) [Example 103, 1-[(4-Cyano-5-methyl-4-phenyl)hexyl]-4-[2-(1-naphthyloxy)ethyl]piperazine], the IC50 came to 2.5 µM.

As for `CCC(CN1CCN(CCCC(C#N)(c2ccccc2)C(C)C)CC1)Oc1ccc(F)cc1` (stereo not shown) [Example 104, 1-[(4-Cyano-5-methyl-4-phenyl)hexyl]-4-[2-(4-fluorophenoxy)butyl]piperazine], the IC50 turned out to be 2.2 µM.

Regarding `CC(C)C(C#N)(CCCN1CCN(CCOc2ncnc3ccccc23)CC1)c1ccccc1` (stereo not shown) [Example 105, 1-[(4-Cyano-5-methyl-4-phenyl)hexyl]-4-[2-(4-quinazolinyloxy)ethyl]piperazine], the 50% inhibitory concentration (IC50) is more than 16 µM.

As to `CC(C)C(C#N)(CCCN1CCN(CCOc2ccc(-c3cccnc3)cc2)CC1)c1ccccc1` (stereo not shown) [Example 106, 1-[(4-Cyano-5-methyl-4-phenyl)hexyl]-4-{2-[4-(3-pyridyl)phenoxy]ethyl}piperazine], the IC50 was 7 µM.
